Read-outs that look alike come from different tables or passages of the source.
What was measured:
[1] = tested on: supramaximal electroshock (MES) model; details: rat; cited from earlier work
[2] = tested on: cochlea nerve compound action potential (CAP); assay: Otoprotection after acute noise insult: CAP threshold shifts; format: in vivo, guinea pig; details: 20 mg/kg about 2 hours before 15 minutes filtered (5-20 KHz) noise; 8, 16, 24 and 30 KHz
Method: Sedation was achieved using an intramuscular injection of 0.5 mL/kg medetomidine followed by an intraperitoneal injection of 6 mL/kg fentanyl approximately 10 minutes later (loss of the pedal reflex was used to determine sufficient sedation for surgery).
The cochlea nerve compound action potential (CAP) was generated in response to discrete acoustic stimuli. It was used to determine both control and treatment related changes in auditory thresholds by measuring changes in CAP latency (milliseconds) and amplitude (μVolts).
Tone ‘pip’ stimuli of 5 millisecond duration were computer generated at 8, 16, 24 and 30 KHz and fed to an attenuator (1 dB resolution). The tone pip was then fed to a Bruel and Kjaer 4192, (microphone) serving as an acoustic driver, which was placed inside an ear speculum coupled to the ear canal. CAP averaging was performed between ×50 to 100 times and the CAP threshold was determined by visual inspection of the recorded time signal. Accuracy was typically between 1-3 dB, using a CAP detection criterion of approximately 1 μV.
Animals were then exposed to 15 minutes filtered (5-20 KHz) free field noise (approximately […]) during which ESAC measurements were made at 5 minute intervals.

[3] = Assay of plasma and perilymph for lamotrigine (pharmacokinetic evaluation); format: in vivo; details: guinea pig, single oral dose 20 mg/kg; for concentration at 15 h / Tmax / Cmax: male, albino
Method: All solutions were prepared fresh on the day of dosing and stored at 2-8° C., protected from light, between dosing sessions. In order to establish the otoprotective properties of LTG, a pharmacokinetic evaluation study was designed to establish penetration of LTG into guinea pig perilymph and plasma. A total of 17 healthy adult male albino guinea pigs were used. […] Two untreated control animals were also sampled for comparison. […] After the terminal blood sample had been taken, the animal received an overdose of anaesthetic and was decapitated. The bulla was removed and thoroughly cleaned to remove all tissue and fluids. […] Levels of LTG in both plasma and perilymph were determined using a protein precipitation extraction procedure using high performance liquid chromatography (HPLC) with ultraviolet (UV) detection. The LTG retention time was 5.4 minutes and quantification was carried out using peak areas.

## Nc1nnc(-c2cccc(Cl)c2Cl)c(N)n1 [LTG, 3,5-Diamino-6-(2,3-dichlorophenyl)-1,2,4-triazine]
[1]
  effective oral dose (ED50): 6.8 mg/kg
[2]
  CAP threshold shifts after noise versus noise control: mean thresholds were higher in the LTG treated animals and reached statistical significance at 8 kHz
[3]; timepoints 1-15 hours
  levels in perilymph relative to plasma: approximately twice
[3]; perilymph, read-out: mean perilymph LTG level after the 15 hour sampling period
  concentration at 15 h: 3200 ng/mL
[3]; perilymph, read-out: perilymph approximate mean time of maximum concentration (Tmax)
  Tmax: ~2 h
[3]; perilymph, read-out: perilymph mean maximum concentration (Cmax)
  Cmax: 6140 ng/mL
[3]; plasma, read-out: mean plasma LTG level after the 15 hour sampling period
  concentration at 15 h: 1000 ng/mL
[3]; plasma, read-out: mean plasma Cmax
  Cmax: 3590 ng/mL
[3]; plasma, read-out: plasma Tmax
  Tmax: 1 h
